Here are results for three compounds from ChEMBL document CHEMBL1208782, “Synthesis and pharmacological validation of a novel series of non-steroidal FXR agonists” (Bioorg Med Chem Lett, 2010).

For assay [1], the target named is T1, Bile acid receptor (Homo sapiens) (UniProt Q96RI1).
T1 sequence (whole entry): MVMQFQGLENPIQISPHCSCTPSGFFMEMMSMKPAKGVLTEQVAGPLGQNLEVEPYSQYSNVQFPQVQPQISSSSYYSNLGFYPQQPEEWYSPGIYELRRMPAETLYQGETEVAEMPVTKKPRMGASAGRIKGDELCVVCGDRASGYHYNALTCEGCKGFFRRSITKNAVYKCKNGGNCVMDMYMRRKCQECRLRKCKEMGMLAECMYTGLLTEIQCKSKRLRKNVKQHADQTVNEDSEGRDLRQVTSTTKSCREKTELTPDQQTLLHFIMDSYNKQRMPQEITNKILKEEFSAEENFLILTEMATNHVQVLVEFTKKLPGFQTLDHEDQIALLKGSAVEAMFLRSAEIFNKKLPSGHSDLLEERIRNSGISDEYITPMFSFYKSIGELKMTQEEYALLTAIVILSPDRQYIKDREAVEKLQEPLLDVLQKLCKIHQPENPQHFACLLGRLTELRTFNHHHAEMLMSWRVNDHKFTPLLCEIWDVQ
The experiment in a line: Agonist activity at human GST-fused FXR LBD assessed as cofactor peptide interaction with receptor ligand binding domain by FRET assay relative to GW-4064.

The target of another assay is T2, Bile acid receptor (Homo sapiens, UniProt Q96RI1).
T2 sequence (Q96RI1 whole entry): T1 sequence (whole entry)
The experiment in a line: Agonist activity at human full length FXR transfected in HEK293 cells coexpressing pTRexDest/pGL2promotor assessed as luciferase activity by direct reporter cellular assay. The format is functional, cell-based. The conditions noted are these: read-out: EC50.

Assay [2] deals with T3, Retinoic acid receptor alpha (Homo sapiens, UniProt P10276).
T3 sequence (P10276 whole entry): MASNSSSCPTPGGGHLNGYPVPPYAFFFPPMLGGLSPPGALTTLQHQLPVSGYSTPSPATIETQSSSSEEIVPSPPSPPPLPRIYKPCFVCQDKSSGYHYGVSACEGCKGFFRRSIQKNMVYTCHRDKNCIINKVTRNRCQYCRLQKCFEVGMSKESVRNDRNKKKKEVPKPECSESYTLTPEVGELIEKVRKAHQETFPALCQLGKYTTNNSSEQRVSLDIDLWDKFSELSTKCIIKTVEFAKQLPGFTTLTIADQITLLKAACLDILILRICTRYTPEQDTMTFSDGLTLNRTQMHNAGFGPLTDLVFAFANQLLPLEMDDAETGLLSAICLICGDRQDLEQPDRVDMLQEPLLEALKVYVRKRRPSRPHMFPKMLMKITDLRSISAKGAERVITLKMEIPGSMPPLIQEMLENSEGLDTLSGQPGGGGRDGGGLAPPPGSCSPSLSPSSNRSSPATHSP
The assay is described as follows: Agonist activity at RARalpha-LBD expressed in HEK293 cells assessed as Gal4-DBD interaction by cellular mammalian one hybrid assay. It counts as functional, cell-based.

Assay [3] has as its target T4, Mineralocorticoid receptor (Homo sapiens) (UniProt P08235).
T4 sequence (whole entry): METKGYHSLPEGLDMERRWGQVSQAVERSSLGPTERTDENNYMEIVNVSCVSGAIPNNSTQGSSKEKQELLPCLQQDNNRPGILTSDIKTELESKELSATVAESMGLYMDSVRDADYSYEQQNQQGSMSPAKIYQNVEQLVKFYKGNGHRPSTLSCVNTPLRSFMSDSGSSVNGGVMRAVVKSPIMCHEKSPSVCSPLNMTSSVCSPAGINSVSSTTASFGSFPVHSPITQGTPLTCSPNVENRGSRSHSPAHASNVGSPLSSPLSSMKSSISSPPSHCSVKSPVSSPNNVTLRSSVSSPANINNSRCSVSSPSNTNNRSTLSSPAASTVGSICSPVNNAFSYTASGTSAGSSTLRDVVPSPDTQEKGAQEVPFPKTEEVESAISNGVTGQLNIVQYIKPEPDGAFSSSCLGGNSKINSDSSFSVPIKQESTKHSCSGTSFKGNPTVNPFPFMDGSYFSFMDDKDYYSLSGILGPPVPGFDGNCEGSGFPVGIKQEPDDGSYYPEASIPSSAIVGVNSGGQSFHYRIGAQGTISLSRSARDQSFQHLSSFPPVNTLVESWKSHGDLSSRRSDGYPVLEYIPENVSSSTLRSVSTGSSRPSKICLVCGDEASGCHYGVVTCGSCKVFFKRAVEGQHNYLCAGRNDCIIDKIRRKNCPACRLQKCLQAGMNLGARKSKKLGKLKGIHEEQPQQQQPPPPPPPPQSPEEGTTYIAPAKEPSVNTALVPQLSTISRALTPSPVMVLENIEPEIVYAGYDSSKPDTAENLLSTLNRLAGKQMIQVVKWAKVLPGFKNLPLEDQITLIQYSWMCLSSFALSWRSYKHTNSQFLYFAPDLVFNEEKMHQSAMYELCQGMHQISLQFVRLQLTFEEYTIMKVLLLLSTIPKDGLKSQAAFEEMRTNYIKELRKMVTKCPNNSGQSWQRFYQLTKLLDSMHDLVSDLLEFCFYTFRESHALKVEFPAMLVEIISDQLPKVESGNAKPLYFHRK
The assay is described as follows: Agonist activity at mineralocorticoid receptor-LBD expressed in HEK293 cells assessed as Gal4-DBD interaction by cellular mammalian one hybrid assay relative to mineralocorticoid. It counts as functional, cell-based.

Assay [4] addresses T5, Oxysterols receptor LXR-beta (Homo sapiens) (UniProt P55055).
T5 sequence (whole entry): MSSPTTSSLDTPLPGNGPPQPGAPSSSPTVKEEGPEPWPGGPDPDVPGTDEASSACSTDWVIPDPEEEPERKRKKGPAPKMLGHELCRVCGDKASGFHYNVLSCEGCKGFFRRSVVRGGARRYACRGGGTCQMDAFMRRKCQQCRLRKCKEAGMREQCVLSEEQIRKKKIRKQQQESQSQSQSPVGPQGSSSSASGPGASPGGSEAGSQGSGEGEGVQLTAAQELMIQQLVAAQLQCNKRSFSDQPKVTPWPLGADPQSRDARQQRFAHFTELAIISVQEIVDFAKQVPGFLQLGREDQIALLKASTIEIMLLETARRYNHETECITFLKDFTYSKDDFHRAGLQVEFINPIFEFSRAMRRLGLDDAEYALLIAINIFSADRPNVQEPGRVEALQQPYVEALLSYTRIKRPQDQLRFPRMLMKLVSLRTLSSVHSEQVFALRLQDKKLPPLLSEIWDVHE
The experiment in a line: Agonist activity at LXRbeta-LBD expressed in HEK293 cells assessed as Gal4-DBD interaction by cellular mammalian one hybrid assay relative to T0901317. The format is functional, cell-based.

A word on the EC50: it is the concentration at which the effect is half-maximal. For `CC(C)c1onc(-c2c(Cl)cccc2Cl)c1COc1ccc(N(C)Cc2ccc(C(=O)O)cc2)c(C(F)(F)F)n1`, the Efficacy came out at 97% in assay [1], 0% in assay [3] and 0% in assay [4]. Besides, the 50% effective concentration (EC50) was 15 nM on Bile acid receptor and > 10000 nM in assay [2].

For the compound `CN(Cc1ccc(C(=O)O)cc1)c1ccc(OCc2c(-c3c(Cl)cccc3Cl)noc2C2CC2)nc1C(F)(F)F`, the results for the Efficacy in assay [1], in assay [3] and in assay [4] were 109%, 0% and 0%, respectively. The results for the EC50 (on Bile acid receptor; in assay [2]) were 6 nM and > 10000 nM, respectively.

`CN(Cc1cccc(C(=O)O)c1)c1ccc(OCc2c(-c3c(Cl)cccc3Cl)noc2C2CC2)nc1C(F)(F)F`: the Efficacy is 102% in assay [1], 0% in assay [3] and 0% in assay [4]. In addition, the EC50 at Bile acid receptor is 2 nM; in assay [2], > 10000 nM.
